Experimental data published in patent publication US12252701B2, “Chimeric antigen receptor T cell therapy” (KITE PHARMA, INC., priority 2020, dated 2025).

Tests used:
[1] = test system: NALM6.GFP.LUC.CD19 target cells; assay: Serial killing assay of CAR-T, percent cytotoxicity by luciferase detection; settings: repeat stimulation rounds
Method: The percent cytotoxicity to NALM6.GFP.LUC.CD19 target cells was measured by luciferase detection at each round.
In one embodiment, a serial killing assay is a combination of cell killing and how long it takes for CAR T cells to get exhausted under repeated stimulation. In one embodiment, a serial killing assay is a surrogate measure for CAR T cell persistence in vivo.

[2] = test system: Nalm6 cells; assay: Serial killing assay, T-cell (CD4, CD8) and Nalm6 cell counts by flow cytometry; format: cell-based, human
Method: T-cell counts (CD4 and CD8) were assessed by flow cytometry.
Nalm6 cells were assessed by flow cytometry.
T-cell counts (CD4 and CD8) and Nalm6 cells were assessed by flow cytometry.

[3] = test system: phospho-STAT-1, -3 and -5 in purified CD14+ monocytes; assay: Intracellular phospho-STAT-1, -3, -5 by BD PhosphoFlow in purified monocytes; format: cell-based, human; settings: for Monocyte-specific pSTAT1 signaling, inhibition / Monocyte-specific pSTAT3 signaling, inhibition / Monocyte-specific pSTAT5 signaling, inhibition: purified CD14+ monocytes
Method: (§1) Further experiments were performed to look at impacts of JAK inhibitors on STAT phosphorylation in various immune cell subsets.

[4] = test system: phospho-STAT-1, -3 and -5 in CD4, CD8 T cells and monocytes (CAR T product, PBMCs); assay: Intracellular phospho-STAT-1, -3, -5 by flow cytometry in immune cell subsets of CAR T product and PBMCs; format: cell-based, human
Method: as §1

[5] = E:T ratio of 1:1, dose titration
[6] = CAR T cell-derived supernatant, 30 min
[7] = purified monocytes, CAR T derived cytokines/supernatant stimulation, 30 min

## Nc1nc2cccc(-c3ccc(CN4CCS(=O)(=O)CC4)cc3)n2n1 [GS-829845]
[1]; E:T of 1:1, dose titration
  impact on CAR-T serial killing (percent cytotoxicity): enhance serial killing
[1]; E:T of 1:3, dose titration
  impact on CAR-T serial killing (percent cytotoxicity): no impact
[2]; [5]
  persistence of T-cells (CD4 and CD8 counts): Improved persistence
  serial killing assessed by Nalm6 cells (flow cytometry): enhance serial killing in a dose-dependent manner
[2]; E:T ratio of 1:3, dose titration
  impact on T-cell counts and Nalm6 cell counts: not impacted
[3]; [6]
  Monocyte-specific pSTAT1 signaling, inhibition: 32%
  Monocyte-specific pSTAT3 signaling, inhibition: 80%
  Monocyte-specific pSTAT5 signaling, inhibition: 3%
[3]; rh-GM-CSF-induced
  Monocyte-specific pSTAT1 signaling, inhibition: na/ni
  Monocyte-specific pSTAT3 signaling, inhibition: na/ni
  Monocyte-specific pSTAT5 signaling, inhibition: 0%
[3]; rhIFNg-induced
  Monocyte-specific pSTAT1 signaling, inhibition: 61%
  Monocyte-specific pSTAT3 signaling, inhibition: 100%
  Monocyte-specific pSTAT5 signaling, inhibition: 100%
[3]; rhIL6-induced
  Monocyte-specific pSTAT1 signaling, inhibition: na/ni
  Monocyte-specific pSTAT3 signaling, inhibition: 33%
  Monocyte-specific pSTAT5 signaling, inhibition: na/ni
[3]; [7]
  pSTAT1 inhibition: 32%
  pSTAT3 inhibition: 80%
[4]; CD4 CART cells
  Primary Cell IL-6 pSTAT1 signaling (% inhibition): 18%
  Primary Cell IL-6 pSTAT3 signaling (% inhibition): 6%
  Primary Cell IL-6 pSTAT5 signaling (% inhibition): 29%
[4]; CD8 CART cells
  Primary Cell IL-6 pSTAT1 signaling (% inhibition): 11%
  Primary Cell IL-6 pSTAT3 signaling (% inhibition): 2%
  Primary Cell IL-6 pSTAT5 signaling (% inhibition): 17%
[4]; IL-6 stimulation
  effect on phosphorylated-STAT-1, -STAT-3 and -STAT5 levels: only a fraction of the filgotinib suppression levels
[4]; Monocytes within bulk PBMCs
  Primary cell GM-CSF-pSTAT5, inhibition: 3%
[4]; PBMC CD4 T cells
  Primary Cell IL-6 pSTAT1 signaling (% inhibition): 25%
  Primary Cell IL-6 pSTAT3 signaling (% inhibition): 15%
  Primary Cell IL-6 pSTAT5 signaling (% inhibition): 36%
[4]; PBMC CD8 T cells
  Primary Cell IL-6 pSTAT1 signaling (% inhibition): 10%
  Primary Cell IL-6 pSTAT3 signaling (% inhibition): 11%
  Primary Cell IL-6 pSTAT5 signaling (% inhibition): 24%
[4]; PBMC Monocytes
  Primary Cell IL-6 pSTAT1 signaling (% inhibition): 24%
  Primary Cell IL-6 pSTAT3 signaling (% inhibition): 17%
  Primary Cell IL-6 pSTAT5 signaling (% inhibition): 21%
[4]; T cells within bulk PBMCs
  Primary cell GM-CSF-pSTAT5, inhibition: 16%
